Measurements from PMC11859928, “Design, Synthesis, and Antiproliferative Activity of Novel Indole/1,2,4-Triazole Hybrids as Tubulin Polymerization Inhibitors” (Pharmaceuticals, 2025).

Key:
Assay in all cases: NCI one-dose assay
Assay type in all cases: cell-based
A549/ATCC = conditions: Homo sapiens, Non-small cell lung cancer, read-out: Cell growth inhibition %
ACHN = conditions: Homo sapiens, Renal cancer, read-out: Cell growth inhibition %
BT-549 = conditions: Homo sapiens, BT-549, Breast cancer, read-out: Cell growth inhibition %
CAKI-1 = conditions: Homo sapiens, CAKI-1, Renal cancer, read-out: Cell growth inhibition %
CCRF-CEM = conditions: Homo sapiens, Leukemia, read-out: Cell growth inhibition %
COLO 205 = conditions: Homo sapiens, COLO 205, Colon cancer, read-out: Cell growth inhibition %
DU-145 = conditions: Homo sapiens, DU-145, Prostate cancer, read-out: Cell growth inhibition %
EKVX = conditions: Homo sapiens, Non-small cell lung cancer, read-out: Cell growth inhibition %
HCC-2998 = conditions: Homo sapiens, HCC-2998, Colon cancer, read-out: Cell growth inhibition %
HCT-116 = conditions: Homo sapiens, HCT-116, Colon cancer, read-out: Cell growth inhibition %
HCT-15 = conditions: Homo sapiens, HCT-15, Colon cancer, read-out: Cell growth inhibition %
HL-60(TB) = conditions: Homo sapiens, Leukemia, read-out: Cell growth inhibition %
HS 578 T = conditions: Homo sapiens, Breast cancer, read-out: Cell growth inhibition %
IGROV1 = conditions: Homo sapiens, IGROV-1, IGROV1, Ovarian cancer, read-out: Cell growth inhibition %
K-562 = conditions: Homo sapiens, K562, K-562, Leukemia, read-out: Cell growth inhibition %
KM12 = conditions: Homo sapiens, KM12, Colon cancer, read-out: Cell growth inhibition %
MALME-3M = conditions: Homo sapiens, Melanoma, read-out: Cell growth inhibition %
MDA-MB-231/ATCC = conditions: Homo sapiens, Breast cancer, read-out: Cell growth inhibition %
MOLT-4 = conditions: Homo sapiens, MOLT-4, Leukemia, read-out: Cell growth inhibition %
NCI-H226 = conditions: Homo sapiens, NCI-H226, Non-small cell lung cancer, read-out: Cell growth inhibition %
NCI-H23 = conditions: Homo sapiens, NCI-H23, Non-small cell lung cancer, read-out: Cell growth inhibition %
NCI-H460 = conditions: Homo sapiens, NCI-H460, Non-small cell lung cancer, read-out: Cell growth inhibition %
NCI-H522 = conditions: Homo sapiens, NCI-H522, Non-small cell lung cancer, read-out: Cell growth inhibition %
NCI/ADR-RES = conditions: Homo sapiens, Ovarian cancer, read-out: Cell growth inhibition %
OVCAR-3 = conditions: Homo sapiens, OVCAR-3, Ovarian cancer, read-out: Cell growth inhibition %
OVCAR-5 = conditions: Homo sapiens, OVCAR-5, Ovarian cancer, read-out: Cell growth inhibition %
PC-3 = conditions: Homo sapiens, PC-3, Prostate cancer, read-out: Cell growth inhibition %
RPMI-8226 = conditions: Homo sapiens, RPMI-8226, Leukemia, read-out: Cell growth inhibition %
SF-295 = conditions: Homo sapiens, SF-295, CNS cancer, read-out: Cell growth inhibition %
SF-539 = conditions: Homo sapiens, SF-539, CNS cancer, read-out: Cell growth inhibition %
SK-MEL-28 = conditions: Homo sapiens, SK-MEL-28, Melanoma, read-out: Cell growth inhibition %
SK-OV-3 = conditions: Homo sapiens, SK-OV-3, Ovarian cancer, read-out: Cell growth inhibition %
SN12C = conditions: Homo sapiens, Renal cancer, read-out: Cell growth inhibition %
SR = conditions: Homo sapiens, Leukemia, read-out: Cell growth inhibition %
U251 = conditions: Homo sapiens, U-251, U251, CNS cancer, read-out: Cell growth inhibition %
UACC-257 = conditions: Homo sapiens, UACC-257, Melanoma, read-out: Cell growth inhibition %
UACC-62 = conditions: Homo sapiens, UACC-62, Melanoma, read-out: Cell growth inhibition %

O=C(CSc1nnc(-c2c[nH]c3ccccc23)n1-c1ccccc1)c1ccc(Cl)cc1 [Compound 6j, 2-((5-(1H-indol-3-yl)-4-phenyl-4H-1,2,4-triazol-3-yl)thio)-1-(4-chlorophenyl) Ethenone]
inhibition at 10 µM (A549/ATCC): 62.5%
inhibition at 10 µM (ACHN): 42.5%
inhibition at 10 µM (BT-549): 30.2%
inhibition at 10 µM (CAKI-1): 35.5%
inhibition at 10 µM (CCRF-CEM): 7.26%
inhibition at 10 µM (COLO 205): 57.4%
inhibition at 10 µM (DU-145): 11.6%
inhibition at 10 µM (EKVX): 74.4%
inhibition at 10 µM (HCC-2998): 21.9%
inhibition at 10 µM (HCT-116): 54.2%
inhibition at 10 µM (HCT-15): 26.7%
inhibition at 10 µM (HL-60(TB)): 11.1%
inhibition at 10 µM (HS 578 T): 66.8%
inhibition at 10 µM (IGROV1): 48.6%
inhibition at 10 µM (K-562): 31%
inhibition at 10 µM (KM12): 21.3%
inhibition at 10 µM (MALME-3M): 36%
inhibition at 10 µM (MDA-MB-231/ATCC): 48.3%
inhibition at 10 µM (MOLT-4): -3.56%
inhibition at 10 µM (NCI-H226): 82.4%
inhibition at 10 µM (NCI-H23): 59.2%
inhibition at 10 µM (NCI-H460): 39.9%
inhibition at 10 µM (NCI-H522): 33%
inhibition at 10 µM (NCI/ADR-RES): 94.2%
inhibition at 10 µM (OVCAR-3): 26.1%
inhibition at 10 µM (OVCAR-5): 9.28%
inhibition at 10 µM (PC-3): 39.5%
inhibition at 10 µM (RPMI-8226): 16.8%
inhibition at 10 µM (SF-295): 45%
inhibition at 10 µM (SF-539): 50.5%
inhibition at 10 µM (SK-MEL-28): 31.7%
inhibition at 10 µM (SK-OV-3): 27.9%
inhibition at 10 µM (SN12C): 35.4%
inhibition at 10 µM (SR): 7.63%
inhibition at 10 µM (U251): 69.9%
inhibition at 10 µM (UACC-257): 27.7%
inhibition at 10 µM (UACC-62): 47.2%

C=CCn1c(SC/C(=N\O)c2ccccc2)nnc1-c1c[nH]c2ccccc12 [Compound 7a, (Z)-2-((4-Allyl-5-(1H-indol-3-yl)-4H-1,2,4-triazol-3-yl)thio)-1-phenylethanone Oxime]
inhibition at 10 µM (A549/ATCC): -6.67%
inhibition at 10 µM (ACHN): 3.82%
inhibition at 10 µM (BT-549): -3.51%
inhibition at 10 µM (CAKI-1): 6.71%
inhibition at 10 µM (CCRF-CEM): 0.66%
inhibition at 10 µM (COLO 205): 2.04%
inhibition at 10 µM (DU-145): -5.82%
inhibition at 10 µM (EKVX): 5.6%
inhibition at 10 µM (HCC-2998): 0.84%
inhibition at 10 µM (HCT-116): 9.24%
inhibition at 10 µM (HCT-15): 4.41%
inhibition at 10 µM (HL-60(TB)): 9.34%
inhibition at 10 µM (HS 578 T): 5.73%
inhibition at 10 µM (IGROV1): 7.6%
inhibition at 10 µM (K-562): 3.29%
inhibition at 10 µM (KM12): -2.55%
inhibition at 10 µM (MALME-3M): 7.6%
inhibition at 10 µM (MDA-MB-231/ATCC): 3.9%
inhibition at 10 µM (MOLT-4): 2.51%
inhibition at 10 µM (NCI-H226): 12.1%
inhibition at 10 µM (NCI-H23): -1.28%
inhibition at 10 µM (NCI-H460): 3.34%
inhibition at 10 µM (NCI-H522): 4.48%
inhibition at 10 µM (NCI/ADR-RES): -6.66%
inhibition at 10 µM (OVCAR-3): -14.9%
inhibition at 10 µM (OVCAR-5): -3.15%
inhibition at 10 µM (PC-3): 9.77%
inhibition at 10 µM (RPMI-8226): 0.38%
inhibition at 10 µM (SF-295): 12.4%
inhibition at 10 µM (SF-539): 3.26%
inhibition at 10 µM (SK-MEL-28): -4.36%
inhibition at 10 µM (SK-OV-3): 2.21%
inhibition at 10 µM (SN12C): 2.4%
inhibition at 10 µM (SR): -10.3%
inhibition at 10 µM (U251): 4.62%
inhibition at 10 µM (UACC-257): -13.1%
inhibition at 10 µM (UACC-62): 13.6%

C=CCn1c(SCC(=NO)c2ccc(OC)cc2)nnc1-c1c[nH]c2ccccc12 [Compound 7b, 2-((4-allyl-5-(1H-indol-3-yl)-4H-1,2,4-triazol-3-yl)thio)-1-(4-methoxyphenyl) Ethanone Oxime]
inhibition at 10 µM (A549/ATCC): -9.29%
inhibition at 10 µM (ACHN): 7.56%
inhibition at 10 µM (BT-549): -3.8%
inhibition at 10 µM (CAKI-1): 1.5%
inhibition at 10 µM (CCRF-CEM): 8.83%
inhibition at 10 µM (COLO 205): -11.9%
inhibition at 10 µM (DU-145): -5.85%
inhibition at 10 µM (EKVX): 7.49%
inhibition at 10 µM (HCC-2998): -8.35%
inhibition at 10 µM (HCT-116): 23.6%
inhibition at 10 µM (HCT-15): 4.34%
inhibition at 10 µM (HL-60(TB)): 16.1%
inhibition at 10 µM (HS 578 T): 2.61%
inhibition at 10 µM (IGROV1): 17.6%
inhibition at 10 µM (K-562): 13.6%
inhibition at 10 µM (KM12): -5.28%
inhibition at 10 µM (MALME-3M): 3.2%
inhibition at 10 µM (MDA-MB-231/ATCC): 13.5%
inhibition at 10 µM (MOLT-4): 8.18%
inhibition at 10 µM (NCI-H226): 14.9%
inhibition at 10 µM (NCI-H23): 4.86%
inhibition at 10 µM (NCI-H460): 5.34%
inhibition at 10 µM (NCI-H522): 8.33%
inhibition at 10 µM (NCI/ADR-RES): -3.18%
inhibition at 10 µM (OVCAR-3): -9.23%
inhibition at 10 µM (OVCAR-5): -4.1%
inhibition at 10 µM (PC-3): 14.9%
inhibition at 10 µM (RPMI-8226): 14.9%
inhibition at 10 µM (SF-295): 16.6%
inhibition at 10 µM (SF-539): 4.37%
inhibition at 10 µM (SK-MEL-28): -3.89%
inhibition at 10 µM (SK-OV-3): 1.86%
inhibition at 10 µM (SN12C): 8.24%
inhibition at 10 µM (SR): 3.76%
inhibition at 10 µM (U251): -5.26%
inhibition at 10 µM (UACC-257): -11.5%
inhibition at 10 µM (UACC-62): 20.9%
